# Laboratory results from US20080311092A1, “Murine Stem Cells and Applications Thereof” (priority 2005, published 2008).
# Entries after “also recorded” stand apart in the source; their conditions may differ. Read-outs that look alike come from different tables or passages of the source.
# Columns and labels:
# [1] = system: B cell acute lymphoblastic leukaemia (B-ALL); conditions: BCR-ABLp210 mouse model, not stem-cell targeted; cited from earlier work
# human CML = conditions: cited from earlier work; for Outcome of treatment in human CML: humans
# [2] = system: diffuse large B-cell lymphoma; test: Doxorubicin treatment of Sca1/BCL6 cancer stem cell model mice, cell counting; format: in vivo, mouse
# Protocol: DXR (doxorubicin) was dosed at 7 mg/kg. […] Drugs were dissolved in water and delivered intravenously. Water was used as placebo.
# lung cancer = test: Doxorubicin treatment of Sca1/hKRAS CSC model lung cancer mice, survival study; format: in vivo, mouse; conditions: for Outcome of treatment in the lung cancer CSC mouse model: Sca1/hKRAS mice
# Protocol: DXR (doxorubicin) was dosed at 7 mg/kg. The administration scheme was every 7th day, 3 times—q7dx3—for a duration of 4-5 weeks. Drugs were dissolved in water and delivered intravenously. Water was used as placebo.
# human lymphomas = conditions: humans; cited from earlier work
# human lung cancer = conditions: humans; cited from earlier work
# CSC that express BCR-ABL = test: Ganciclovir treatment of PLy6-HSVtk-IRES-BCRABLp210 (Sca1-IRES-HVTK-BCR-ABL p210) mice; format: in vivo, mouse; conditions: for Disappearance of cancers / tumour burden on GCV treatment: PLy6-HSVtk-IRES-BCRABLp210 mice, 100% with tumours at start, 60 mice injected daily with GCV (100 mg/kg/day i.p.)
# Protocol: PLy6-HSVtk-IRES-BCRABLp210 mice were used to test the effectiveness of GCV-induced cell death in CSC that express BCR-ABL. GCV, after preliminary testing, was administered at a dose of 100 mg/kg/day by i.p. injection for 14 days. This dose has been reported to kill cells expressing HSV-tk in transgenic mice (Bush TG. Cell 1998, 93: 189-201). Dosing started when the mice were leukaemic. A control group was given injections of normal saline.
# (§1) Ganciclovir: stock solutions were prepared following the SIGMA indications. The regimen was 100 mg/kg/day by intraperitoneal injection for 14 days. The placebo was an equal volume of diluent water/normal saline.
# 30 mice were used as a control and were subjected daily with saline solution whereas the 60 remaining mice were injected daily with GCV as described in method section.
# (§2) The mice were treated either with ganciclovir (GCV) or with placebo, as described under materials and methods. For each mouse model, 60 mice were injected daily with ganciclovir, and 30 mice were used as a control and injected daily with saline (placebo).
# Sca1-positive cells = test: Ganciclovir treatment of Sca1-BCL6-IRES-HVTK mice; format: in vivo, mouse
# Protocol: as §1
# CSC mouse cancer models (Sca1-HVTK-IRES-BCR-ABLp210 and Sca1-BCL6-IRES-HVTK mice) were used to address the question of whether the selective ablation of Sca1-positive cells is effective in the therapy of cancer.
# as §2
smiles,measurement,setting,value
"Cc1ccc(NC(=O)c2ccc(CN3CCN(C)CC3)cc2)cc1Nc1nccc(-c2cccnc2)n1 [Gleevec™, imatinib]",Outcome of treatment in conventional mouse B-ALL model,[1],cures the cancer
same,Effect on leukaemic stem cells in humans,human CML; Michor F et al. Nature (2005),does not deplete leukaemic stem cells
same,Outcome of treatment in human CML,human CML,only gives symptomatic relief; also recorded: typically relapse
same,Outcome of treatment in human CML,human CML; listed as Gleevec,provides symptomatic relief
COc1cccc2c1C(=O)c1c(O)c3c(c(O)c1C2=O)C[C@@](O)(C(=O)CO)C[C@@H]3O[C@H]1C[C@H](N)[C@H](O)[C@H](C)O1 [doxorubicin],Outcome of treatment of diffuse large B-cell lymphoma in CSC mice,[2]; Sca1/BCL6 CSC mouse model,ineffective; also recorded: unsuccessful
same,Change in number of B cells,"[2]; Sca1/BCL6 mice, 3-5 month course of doxorubicin treatment",decreased or increased slightly
same,Factor by which the number of CSC increased,"[2]; Sca1/BCL6 mice, over three months of doxorubicin treatment",7-8
same,Survival: none of the treated mice survived longer than,"lung cancer; CSC model lung cancer mice, doxorubicin 7 mg/kg i.v. q7dx3",≤ 20 weeks
same,Outcome of treatment in the lung cancer CSC mouse model,lung cancer,ineffective; also recorded: unsuccessful
same,Outcome of treatment in the lung cancer CSC mouse model,lung cancer; listed as Doxorubicin,also unsuccessful
same,Outcome of treatment in human lymphoma / DLBCL patients,human lymphomas,virtually all human lymphoma patients treated with doxorubicin relapse
same,Outcome of treatment of human lung cancer,human lung cancer,unsuccessful
Nc1nc(O)c2ncn(COC(CO)CO)c2n1 [ganciclovir],Tumour recurrence during further monitoring,CSC that express BCR-ABL; 8 weeks of further monitoring,did not recur
same,Time of treatment after which tumours disappeared completely,CSC that express BCR-ABL; 60 Sca1-IRES-HVTK-BCR-ABL p210 mice treated with ganciclovir,8 weeks
same,Disappearance of cancers / tumour burden on GCV treatment,CSC that express BCR-ABL; listed as GCV,cancers disappeared completely
same,Disappearance of cancers / tumour burden on GCV treatment,CSC that express BCR-ABL; listed as Gancyclovir,complete reduction of tumour burden
same,Tumour recurrence (CML and solid tumours) after GCV treatment,CSC that express BCR-ABL; additional 3 months of observation after cancers disappeared,no tumour recurrence was observed
same,Time to elimination of all tumours,"Sca1-positive cells; Sca1-BCL6-IRES-HVTK mice, 60 mice injected daily with ganciclovir",10 weeks
same,Tumour recurrence during additional monitoring,Sca1-positive cells; additional 11 weeks of monitoring,no tumour recurrence was observed
